Assay results published in paper PMC7822816, “Halo-fluorescein for photodynamic bacteria inactivation in extremely acidic conditions” (Nature Communications, 2021).

What was measured:
[1] = pH titration of halogenated fluorescein (pH0.5); assay type: physicochemical
Protocol: The pH0.5 values (the pH value when the open form reduce to the half of the maximum) of various fluorescein derivatives were determined experimentally through pH titration (Supplementary Figs. 6–16).
The pH of the solutions were adjusted through varying the ratios of citric acid and Na2HPO4 (pH 2.2–8.0), and further acidity was adjusted with concentrated HCl or 1 M NaOH. The absorption and fluorescence spectra of the resultant solutions were then collected.
Section S5. pH-dependent Properties of the Halogenated Fluoresceins.
S5.1 pH titration of halogenated fluorescein
Fluorescein derivatives (Supplementary Table 1) were dissolved in DMSO to obtain 1 mM stock solutions and then diluted with citric acid-Na2HPO4 buffer (100 mM) to 10
μM. The pH of the solutions were adjusted through varying the ratios of citric acid and Na2HPO4 (pH 2.2-8.0), and further acidity was adjusted with concentrated HCl or 1 M
NaOH. The absorption and fluorescence spectra of the resultant solutions were then

[2] = Photophysical characterization (absorption, fluorescence, phosphorescence, lifetime); assay type: physicochemical
Protocol: Section S6. Photophysical Characterizations
S6.1 Absorption, fluorescence, and phosphorescence spectra
Fluorescein and its derivatives were dissolved in DMSO to obtain 1 mM stock solutions.
The stock solutions were diluted with deionized water to 10 μM.
Supplementary Figure 20. The absorption (black), fluorescence (blue), and phosphorescence (red, slit 25 nm) spectra of FL.
Supplementary Figure 21. The absorption (black), fluorescence (blue), and phosphorescence (red, slit 25 nm) spectra of DCF.
S6.2 Fluorescence lifetime
Fluorescence decay samples was recorded with Fluorolog-3 (Horiba). The solution of samples were prepared to be 5 μM in 0.5% (v/v) DMSO, and diluted with 0.1M NaOH.
S6.5 Photophysical properties of the halogenated-fluorescein derivatives
Supplementary Table 4. Photophysical Properties of Halogenated-fluorescein derivatives. […]
a Measured in 2% DMSO; b Measured in 2% DMSO citric acid -disodium hydrogen phosphate buffer; c Measured in a mixed solvent of D 2O and CH3CN (VD2O:
VCH3CN = 1: 15); d The solution of samples were prepared to be 5 μM in 0.5% (v/v) DMSO, and diluted with 0.1 M NaOH.

[3] = 1O2 phosphorescence emission under different pH and irradiance; assay type: physicochemical; settings: pH 2.2 (the gastric acidity), 10 μM
From the text: To evaluate the pH-dependent ^1O2 generation, TIF, PB, and RB were chosen here because of their high ^1O2 generation efficiency and low pH0.5. […] Similar results from PB and RB were also observed (Supplementary Figs. 17 and 18). When pH was lowered down to 2.2 (the gastric acidity), appreciable ^1O2 phosphorescence emission was still collected from TIF, indicating the good performance of TIF in photosensitized generation of ^1O2 in extremely acidic condition. Besides, the pH-induced decrease of ^1O2 generation could be compensated through enlarging the light irradiance. […] Therefore, TIF featured good performance for potential photodynamic bacteria inactivation at extremely acidic conditions.
A total of 10 μM TIF solutions were first prepared with citric acid–Na2HPO4 buffer (100 mM, diluted by D2O) to yield different pH (2.2–6.0). Then, a laser of 532 nm was selected as the lighting source, and the ^1O2 phosphorescence emission were collected.
S5.3 1O2 phosphorescence emission of TIF under different pH and irradiance 10 μM TIF solutions were first prepared with citric acid-Na2HPO4 buffer (100 mM, diluted by D2O) to yield different pH (2.2-6.0). The pH value of solution were adjust by HCl (c, diluted by D2O). Then, laser of 532 nm was selected as the light source, and the 1O2 phosphorescence emission were collected by near infrared detector (H-10330)
Supplementary Figure 19. […]

L. plantarum [4] = assay: Photodynamic inhibition of L. plantarum (coating plate method); assay type: cell-based, Lactobacillus plantarum
A. acidoterrestris = assay: IC50 of photodynamic inactivation, A. acidoterrestris; assay type: cell-based; settings: Alicyclobacillus acidoterrestris, 10 min; pH 2.5; LED 520 nm, 35 mW/cm^2, 10 min
C. albicans [5] = assay: Fresh food preservation (infected tomato model); parameters: species or system Candida albicans
From the text: Besides fruit juices, the potential of TIF for photo-assisted fresh food preservation was also investigated with tomato as the model (pH 3.0). […] Therefore, the food additive TIF is also promising for fresh food preservation.
Tomatoes were selected as the model for photo-assisted fresh food preservation. All the tomatoes were divided into six groups, and made a wound of ~7 cm^2 by hot water. […] Afterward, the tomatoes were stored at room temperature and then subjected to repeated irradiation at day 2. The total viable counts of bacteria on the infected tomatoes were measured in day 3.

S. aureus = assay: IC50 of photodynamic inactivation, S. aureus; settings: Staphylococcus aureus, 10 min, pH 2.5, read-out: IC50 (S. aureus)
Protocol: (§1) For quantitative comparison, the half-maximal inhibitory concentrations (IC50) of TIF for these bacterial were measured (Supplementary Table 6, and Supplementary Figs. 51–58).
(§2) S. aureus and MRSA, and C. albicans were provided by West China Hospital of Stomatology, Sichuan University. A. acidoterrestris, S. enterica, H. pylori, L. plantarum, and E. coli were provided by College of Life Science, Sichuan University. The bacteria were cultured overnight in a constant temperature oscillator (37 °C, 170 r/min, the specific culture conditions were listed in Supplementary Table 6). Suspensions of bacteria (100 μL, diluted 1000-folds, PBS) were added with different concentration PSs (final volume of 1 mL), and irradiated with LED (λ = 520 nm, 35 mW/cm^2) for 10 min. Then, the treated bacteria liquid (100 μL) were added into the culture medium and cultured in a 24-well plate. The OD600 of bacteria was measured to obtain the bacteria CFUs, and the survival rate were calculated as C/C0 × 100%, where C is the CFU of sample which treated with PSs and light, and C0 is the blank without any treatment. All photodynamic sterilizations were carried out in at least three replicates.

C. albicans [6] = assay: IC50 of photodynamic inactivation, C. albicans; settings: Candida albicans, 10 min, pH 3, read-out: IC50 (C. albicans)
Protocol: as §1
Bacterial strains are listed in Supplementary Table 6. S. aureus and MRSA, and C. albicans were provided by West China Hospital of Stomatology, Sichuan University. A. acidoterrestris, S. enterica, H. pylori, L. plantarum, and E. coli were provided by College of Life Science, Sichuan University. The bacteria were cultured overnight in a constant temperature oscillator (37 °C, 170 r/min, the specific culture conditions were listed in Supplementary Table 6). Suspensions of bacteria (100 μL, diluted 1000-folds, PBS) were added with different concentration PSs (final volume of 1 mL), and irradiated with LED (λ = 520 nm, 35 mW/cm^2) for 10 min. Then, the treated bacteria liquid (100 μL) were added into the culture medium and cultured in a 24-well plate. The OD600 of bacteria was measured to obtain the bacteria CFUs, and the survival rate were calculated as C/C0 × 100%, where C is the CFU of sample which treated with PSs and light, and C0 is the blank without any treatment. All photodynamic sterilizations were carried out in at least three replicates.
Irradiation: 520 nm green LED (6 mW/cm2), 10 min. Error bars = Standard Deviation (n=3).
Irradiation: 520 nm green LED (6 mW/cm2), 10 min.

L. plantarum [7] = assay: IC50 of photodynamic inactivation, L. plantarum; settings: Lactiplantibacillus plantarum, 10 min, pH 2.5, read-out: IC50 (L. plantarum)
Protocol: as §1, §2

[8] = system: broad band of aciduric bacteria; assay: Photodynamic inactivation, summary over aciduric bacteria; settings: read-out: IC50 (broad band of aciduric bacteria)
Protocol: as §1
The bacteria were cultured overnight in a constant temperature oscillator (37 °C, 170 r/min, the specific culture conditions were listed in Supplementary Table 6). Suspensions of bacteria (100 μL, diluted 1000-folds, PBS) were added with different concentration PSs (final volume of 1 mL), and irradiated with LED (λ = 520 nm, 35 mW/cm^2) for 10 min. Then, the treated bacteria liquid (100 μL) were added into the culture medium and cultured in a 24-well plate. The OD600 of bacteria was measured to obtain the bacteria CFUs, and the survival rate were calculated as C/C0 × 100%, where C is the CFU of sample which treated with PSs and light, and C0 is the blank without any treatment. All photodynamic sterilizations were carried out in at least three replicates.

[9] = system: C. albicans infection of oral mucosa
From the text: The extremely acidic environment was constructed through changing the pH of the mucosa and diluting PSs in pH 3.0 PBS buffer. […] During the investigations, the infected ICR mice were divided into six groups (six mice per group): blank, light, TIF, TIF + light, Ce 6 + light, and Zn-tpp + light. For comparison and better visualization of the infection, a normal group (no infection) was also included.
To construct the oral mucosal infection model, cotton balls immersed in solutions containing 10^8 CFU/mL of C. albicans were placed in the mouth of mice for 75 min. At day 1 and day 3, 50 μL pH 3.0 PBS and PSs (20 μM, diluted by pH 3.0 PBS) were added to oral mucosa, and treated with different lasers (510 nm for TIF, 660 nm for Ce 6 and Zn-tpp, 50 mW/cm^2) for 10 min.
To investigate the therapy effect, photographs, colonies, weights, and pathology index of mice were taken every other day. After day 3, one mouse in each group was sacrificed, and the tissues of oral mucosa were harvested for hematoxylin and eosin (H&E) staining. The pathology index was evaluated based on the standard given in Supplementary Table 10.

Question: Which results are given for O=C(O)c1ccccc1-c1c2cc(I)c(=O)c(I)c-2oc2c(I)c(O)c(I)cc12 [TIF, 2′,4′,5′,7′-tetraiodofluorescein]?
Answer: pH0.5 ([1]; 2% DMSO citric acid-disodium hydrogen phosphate buffer (Supplementary Table 4)): 4.07; lowering of pH0.5 compared with fluorescein ([1]; difference to fluorescein (6.09)): 2.02 units; kdec [2]: 1e+11 s⁻¹; knr [2]: 9.97e+10 s⁻¹; krad [2]: 3e+08 s⁻¹; maximum absorption [2]: 526 nm; ΦFL ([2]; 5 μM in 0.5% (v/v) DMSO, diluted with 0.1 M NaOH): 0.003; λAbs ([2]; 2% DMSO): 527 nm; λPh ([2]; 2% DMSO): 701 nm; λem ([2]; 2% DMSO): 551 nm; τfl ([2]; fluorescence lifetime, 5 μM in 0.5% DMSO, 0.1 M NaOH): 0.01 ns; 1O2 phosphorescence emission (1270 nm) [3]: appreciable; antimicrobial activity at different pH (L. plantarum [4]; 0.5 μM, light, pH range 2.5–7.0): considerable antimicrobial activity; dark toxicity (bacteria growth) (L. plantarum [4]; no light, concentration up to 50 μM): no significant inhibition of bacteria growth; live/dead bacterial staining (SYTO 9/propidium iodide) (L. plantarum [4]; pH 2.5, 10 μM, irradiation 1 h): bright red fluorescence; membrane integrity (SEM, TEM) (L. plantarum [4]; pH 2.5, 10 μM, irradiation 1 h): obvious deformation and distortion parts; IC50 (A. acidoterrestris): 580 nM; wound infection of tomatoes, without light (C. albicans [5]; 10 μM in pH 3.0 PBS, TIF only): different magnitudes of wound infection; colony counting of infected tomatoes (C. albicans [5]; day 3, 10 μM, pH 3.0, 520 nm LED): excellent antimicrobial ability; IC50 (S. aureus): 370 nM; IC50 (C. albicans [6]): 1040 nM; IC50 (L. plantarum [7]): 10 nM; IC50 [8]: < 1100 nM; pseudo membrane on tongue ([9]; TIF + light group): disappeared gradually; body weight loss of infected mice ([9]; TIF + light group, within 7 days): least loss; pathology index ([9]; TIF + light group, 20 μM in pH 3.0 PBS, 510 nm 50 mW/cm^2 10 min, day 1 and day 3): remained almost unchanged; H&E staining of tongue sections, without light ([9]; TIF group, no light): large amounts of inflammation infiltration; H&E staining of tongue sections, with light ([9]; photosensitizer + light (510 nm TIF, 660 nm Ce 6 and Zn-tpp)): generally similar to that of the normal group
